Source: ChEMBL document CHEMBL1201862, “PubChem BioAssay data set” (2004)
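Five compound concentrations were applied to cells in 96-well plates for 48 hours; endpoints were derived by simple linear interpolation of the resulting dose-response curve. Abbreviation: GI50, concentration required for 50% inhibition of growth.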 Calls of active or inactive are those of the source. No stated cut-off is given here; in the data, active = GI50 up to about 1.1 µM and inactive = higher.

Tests used:
Assay in all cases: inhibition of tumour cell growth, NCI panel, 48 h
SK-MEL-5 = system: SK-MEL-5
HL-60 = system: HL-60
EKVX = system: EKVX
T47D = system: T47D
786-0 = system: 786-0
HCT-116 = system: HCT-116
OVCAR-5 = system: OVCAR-5
KM12 = system: KM12
COLO 205 = system: COLO 205
CAKI-1 = system: CAKI-1
MDA-N = system: MDA-N
UO-31 = system: UO-31
MOLT-4 = system: MOLT-4
ACHN = system: ACHN
PC-3 = system: PC-3
NCI/ADR-RES = system: NCI/ADR-RES
RPMI-8226 = system: RPMI-8226
OVCAR-4 = system: OVCAR-4
SR = system: SR

SMILES	GI50 (SK-MEL-5)	GI50 (HL-60)	GI50 (EKVX)	GI50 (T47D)	GI50 (786-0)	GI50 (HCT-116)	GI50 (OVCAR-5)	GI50 (KM12)	GI50 (COLO 205)	GI50 (CAKI-1)	GI50 (MDA-N)	GI50 (UO-31)	GI50 (MOLT-4)	GI50 (ACHN)	GI50 (PC-3)	GI50 (NCI/ADR-RES)	GI50 (RPMI-8226)	GI50 (OVCAR-4)	GI50 (SR)
CNC(=O)CN(C)C(=O)CCC(=O)N(C)C	> 100 µM (inactive)	> 100 µM (inactive)	> 100 µM (inactive)	> 100 µM (inactive)	> 100 µM (inactive)	> 100 µM (inactive)	> 100 µM (inactive)	> 100 µM (inactive)	> 100 µM (inactive)	> 100 µM (inactive)	> 100 µM (inactive)	> 100 µM (inactive)	> 100 µM (inactive)	> 100 µM (inactive)	> 100 µM (inactive)	> 100 µM (inactive)	> 100 µM (inactive)	–	–
CO/C(N)=C(C#N)/N=C/c1cccs1	39.4 µM (inactive)	22 µM (inactive)	42.4 µM (inactive)	76.6 µM (inactive)	> 100 µM (inactive)	42.2 µM (inactive)	> 100 µM (inactive)	> 100 µM (inactive)	36.6 µM (inactive)	24.3 µM (inactive)	27.4 µM (inactive)	> 100 µM (inactive)	62.8 µM (inactive)	> 100 µM (inactive)	> 100 µM (inactive)	98.2 µM (inactive)	–	> 100 µM (inactive)	–
C1CSCCSCCSCCSCCS1	> 100 µM (inactive)	> 100 µM (inactive)	> 100 µM (inactive)	> 100 µM (inactive)	> 100 µM (inactive)	> 100 µM (inactive)	> 100 µM (inactive)	> 100 µM (inactive)	> 100 µM (inactive)	> 100 µM (inactive)	> 100 µM (inactive)	> 100 µM (inactive)	> 100 µM (inactive)	> 100 µM (inactive)	> 100 µM (inactive)	> 100 µM (inactive)	> 100 µM (inactive)	> 100 µM (inactive)	–
CC1C(c2ccccc2O)c2cc3c(cc2OC1N1CCCC1)OCO3 (configuration not stated)	39.2 µM (inactive)	19.2 µM (inactive)	41.9 µM (inactive)	34.7 µM (inactive)	20 µM (inactive)	19.5 µM (inactive)	32.2 µM (inactive)	33.5 µM (inactive)	23.3 µM (inactive)	34.7 µM (inactive)	18.8 µM (inactive)	31.6 µM (inactive)	19.6 µM (inactive)	32.7 µM (inactive)	28.1 µM (inactive)	–	24.5 µM (inactive)	–	18.8 µM (inactive)
CN1CCN(CCCBr)CC1	> 100 µM (inactive)	> 100 µM (inactive)	> 100 µM (inactive)	> 100 µM (inactive)	> 100 µM (inactive)	> 100 µM (inactive)	> 100 µM (inactive)	> 100 µM (inactive)	> 100 µM (inactive)	–	> 100 µM (inactive)	> 100 µM (inactive)	–	> 100 µM (inactive)	> 100 µM (inactive)	> 100 µM (inactive)	> 100 µM (inactive)	> 100 µM (inactive)	–
Clc1ccc(OCc2nn3c(CCc4nnc5sc(COc6ccc(Cl)cc6)nn45)nnc3s2)cc1	11.1 µM (inactive)	18.8 µM (inactive)	27.7 µM (inactive)	22.4 µM (inactive)	26.4 µM (inactive)	21.9 µM (inactive)	53.7 µM (inactive)	18 µM (inactive)	–	3.35 µM (inactive)	30.3 µM (inactive)	1.53 µM (inactive)	6.62 µM (inactive)	15.1 µM (inactive)	15.6 µM (inactive)	8.15 µM (inactive)	17.3 µM (inactive)	14.7 µM (inactive)	–
CC(C)(C)[Si](C)(C)OCCc1ccccc1C1CC2(S(=O)(=O)c3ccccc3)ON1CC2S(=O)(=O)c1ccccc1 (configuration not stated)	> 100 µM (inactive)	–	> 100 µM (inactive)	< 0.01 µM (active)	> 100 µM (inactive)	> 100 µM (inactive)	> 100 µM (inactive)	> 100 µM (inactive)	> 100 µM (inactive)	–	> 100 µM (inactive)	> 100 µM (inactive)	> 100 µM (inactive)	> 100 µM (inactive)	–	> 100 µM (inactive)	–	> 100 µM (inactive)	–
CCOC(=O)c1cccn1S(=O)(=O)c1cc(Cl)ccc1NC(=O)CC	20.2 µM (inactive)	> 100 µM (inactive)	61.7 µM (inactive)	44.9 µM (inactive)	57 µM (inactive)	40 µM (inactive)	> 100 µM (inactive)	44.9 µM (inactive)	16.3 µM (inactive)	> 100 µM (inactive)	–	15.4 µM (inactive)	47.8 µM (inactive)	> 100 µM (inactive)	59.2 µM (inactive)	–	75.9 µM (inactive)	60.1 µM (inactive)	> 10 µM (inactive)
CC1=CC(=O)/C(=C/NC(=S)c2ccccc2)C(=O)O1	> 100 µM (inactive)	–	> 100 µM (inactive)	> 100 µM (inactive)	> 100 µM (inactive)	> 100 µM (inactive)	> 100 µM (inactive)	> 100 µM (inactive)	> 100 µM (inactive)	> 100 µM (inactive)	> 100 µM (inactive)	> 100 µM (inactive)	> 100 µM (inactive)	> 100 µM (inactive)	> 100 µM (inactive)	> 100 µM (inactive)	–	> 100 µM (inactive)	–
O=C1Nc2ccccc2/C1=N/Nc1ncccc1[N+](=O)[O-]	–	–	5.08 µM (inactive)	–	4.84 µM (inactive)	4.92 µM (inactive)	12.6 µM (inactive)	3.42 µM (inactive)	–	–	27.1 µM (inactive)	11.6 µM (inactive)	48.1 µM (inactive)	4.69 µM (inactive)	12.4 µM (inactive)	9.25 µM (inactive)	3.15 µM (inactive)	19.2 µM (inactive)	–
N#CC1(C#N)C2CCCCC23OC(=N)C1(C#N)C(c1ccco1)O3 (configuration not stated)	15.5 µM (inactive)	–	25.8 µM (inactive)	17.6 µM (inactive)	14.5 µM (inactive)	17.4 µM (inactive)	24.9 µM (inactive)	33.8 µM (inactive)	11.9 µM (inactive)	11.6 µM (inactive)	17.4 µM (inactive)	30.3 µM (inactive)	23 µM (inactive)	28.5 µM (inactive)	23 µM (inactive)	44.3 µM (inactive)	–	–	–
O=S(=O)(O)c1ccc2c(/N=N/c3ccc(Cl)cc3)c(O)ccc2c1	> 100 µM (inactive)	–	> 100 µM (inactive)	89.3 µM (inactive)	> 100 µM (inactive)	> 100 µM (inactive)	> 100 µM (inactive)	> 100 µM (inactive)	> 100 µM (inactive)	> 100 µM (inactive)	> 100 µM (inactive)	> 100 µM (inactive)	> 100 µM (inactive)	> 100 µM (inactive)	> 100 µM (inactive)	> 100 µM (inactive)	> 100 µM (inactive)	> 100 µM (inactive)	–
CC(C)(C)OC(=O)N1C(=O)OC[C@@H]2C=C[C@@H]21	> 100 µM (inactive)	> 100 µM (inactive)	> 100 µM (inactive)	> 100 µM (inactive)	> 100 µM (inactive)	> 100 µM (inactive)	> 100 µM (inactive)	> 100 µM (inactive)	> 100 µM (inactive)	> 100 µM (inactive)	> 100 µM (inactive)	–	> 100 µM (inactive)	> 100 µM (inactive)	> 100 µM (inactive)	> 100 µM (inactive)	> 100 µM (inactive)	> 100 µM (inactive)	–
Nc1nc(N)c2ncn(Cc3c(Cl)cccc3Cl)c2n1	> 100 µM (inactive)	–	28.4 µM (inactive)	> 100 µM (inactive)	> 100 µM (inactive)	> 100 µM (inactive)	> 100 µM (inactive)	> 100 µM (inactive)	> 100 µM (inactive)	> 100 µM (inactive)	> 100 µM (inactive)	> 100 µM (inactive)	> 100 µM (inactive)	> 100 µM (inactive)	> 100 µM (inactive)	50.5 µM (inactive)	> 100 µM (inactive)	> 100 µM (inactive)	–
Cc1nnc(N)nc1/C=C\c1cccs1	> 10 µM (inactive)	6.11 µM (inactive)	13.3 µM (inactive)	46.9 µM (inactive)	18.6 µM (inactive)	17.3 µM (inactive)	21.8 µM (inactive)	16.8 µM (inactive)	27.7 µM (inactive)	34.2 µM (inactive)	–	10.1 µM (inactive)	32.3 µM (inactive)	15 µM (inactive)	17.2 µM (inactive)	16.7 µM (inactive)	22.4 µM (inactive)	21.6 µM (inactive)	16.6 µM (inactive)
Nc1ccccc1/C=C\c1ccccc1	> 100 µM (inactive)	> 100 µM (inactive)	> 100 µM (inactive)	> 100 µM (inactive)	> 100 µM (inactive)	> 100 µM (inactive)	> 100 µM (inactive)	> 100 µM (inactive)	–	–	> 100 µM (inactive)	> 100 µM (inactive)	> 100 µM (inactive)	> 100 µM (inactive)	> 100 µM (inactive)	> 100 µM (inactive)	> 100 µM (inactive)	–	–
Cc1c(C)c(C)c(Cn2[nH]c(=O)n(C)c2=O)c(C)c1C	> 100 µM (inactive)	> 100 µM (inactive)	> 100 µM (inactive)	> 100 µM (inactive)	> 100 µM (inactive)	> 100 µM (inactive)	–	> 100 µM (inactive)	> 100 µM (inactive)	> 100 µM (inactive)	> 100 µM (inactive)	> 100 µM (inactive)	> 100 µM (inactive)	> 100 µM (inactive)	> 100 µM (inactive)	> 100 µM (inactive)	> 100 µM (inactive)	–	–
